Assay results published in patent US5686563A, “Biologically active peptides having n-terminal substitutions” (priority 1995, dated 1997).
Square brackets hold non-standard residues; d marks the D form. Ends that are not written are not given here. Peptide text beside a SMILES is read from it. * marks the point of attachment. hArg = N=C(N)NCCCC[C@H](N)C(=O)O; Octanoyl = CCCCCCCC(=O)*

Experiments:
Assay in all cases: Anaerobic antimicrobial susceptibility test (MIC)
Format in all cases: cell-based
P. gingivalis = conditions: 37° C., 24-48 hours; for MIC P. gingivalis (strain) 9-14K-1: strain 9-14K-1, BHI broth; for MIC P. gingivalis (strain) 381: strain 381, BHI broth; for MIC P. gingivalis (strain) A7A1-28: strain A7A1-28, BHI broth; for MIC P. gingivalis (strain) W50: strain W50, BHI broth; for MIC P. gingivalis (strain) FAY-19M-1: strain FAY-19M-1, BHI broth
S. mutans = conditions: BHI broth, 37° C., 24-48 hours
A. viscosus = conditions: BHI broth, 37° C., 24-48 hours

KIAKKIAKIAKKIAKIAKKIA-NH2 [(SEQ ID NO: 86)-NH2]
MIC P. gingivalis (strain) 9-14K-1 (P. gingivalis): 8 μl/ml | MIC P. gingivalis (strain) 381 (P. gingivalis): 8 μl/ml | MIC P. gingivalis (strain) A7A1-28 (P. gingivalis): 2 μl/ml | MIC P. gingivalis (strain) W50 (P. gingivalis): 4 μl/ml | MIC S. mutans (S. mutans): 4 μl/ml | MIC A. viscos (A. viscosus): 16 μl/ml

CC[C@H](C)[C@H](NC(=O)[C@H](CCCCNC(=N)N)NC(=O)CNC(=O)[C@H](C)NC(=O)[C@@H](NC(=O)[C@H](CCCCNC(=N)N)NC(=O)[C@H](C)NC(=O)[C@@H](NC(=O)[C@H](CCCCNC(=N)N)NC(=O)CNC(=O)[C@H](C)NC(=O)[C@@H](NC(=O)[C@H](CCCCNC(=N)N)NC(=O)[C@H](C)NC(=O)[C@@H](NC(=O)[C@H](CCCCNC(=N)N)NC(=O)CNC(=O)[C@H](C)NC(=O)[C@@H](NC(=O)[C@@H](N)CCCCNC(=N)N)[C@@H](C)CC)[C@@H](C)CC)[C@@H](C)CC)[C@@H](C)CC)[C@@H](C)CC)C(=O)N[C@@H](C)C(N)=O [(SEQ ID NO: 66)-NH2] (H-[hArg]IAG[hArg]IA[hArg]IAG[hArg]IA[hArg]IAG[hArg]IA-NH2)
MIC P. gingivalis (strain) W50 (P. gingivalis): 4 μl/ml

CCCCCCCC(=O)N[C@@H](CCCCN)C(=O)N[C@H](C(=O)N[C@@H](C)C(=O)N[C@@H](CCCCN)C(=O)N[C@@H](CCCCN)C(=O)N[C@H](C(=O)N[C@@H](C)C(=O)N[C@@H](CCCCN)C(=O)N[C@H](C(=O)N[C@@H](C)C(=O)N[C@@H](CCCCN)C(=O)N[C@@H](CCCCN)C(=O)N[C@H](C(=O)N[C@@H](C)C(=O)N[C@@H](CCCCN)C(=O)N[C@H](C(=O)N[C@@H](C)C(=O)N[C@@H](CCCCN)C(=O)N[C@@H](CCCCN)C(=O)N[C@H](C(=O)N[C@@H](C)C(=O)O)[C@@H](C)CC)[C@@H](C)CC)[C@@H](C)CC)[C@@H](C)CC)[C@@H](C)CC)[C@@H](C)CC [Oct-(SEQ ID NO: 86)-OH] (Octanoyl-KIAKKIAKIAKKIAKIAKKIA-OH)
MIC P. gingivalis (strain) W50 (P. gingivalis): 1 μl/ml

KIAGKIAKIAGKIAKIAGKIA-NH2 [(SEQ ID NO: 27)-NH2]
MIC P. gingivalis (strain) W50 (P. gingivalis): 4 μl/ml

(SEQ ID NO: 86)-OH: (Lys Ile Ala Lys Lys Ile Ala)3 unsubstituted at the N-terminal, C-terminal OH (H-KIAKKIAKIAKKIAKIAKKIA-OH)
MIC P. gingivalis (strain) 9-14K-1 (P. gingivalis): 16 μl/ml | MIC P. gingivalis (strain) 381 (P. gingivalis): 16 μl/ml | MIC P. gingivalis (strain) A7A1-28 (P. gingivalis): 4 μl/ml | MIC P. gingivalis (strain) FAY-19M-1 (P. gingivalis): 8 μl/ml | MIC P. gingivalis (strain) W50 (P. gingivalis): 4 μl/ml | MIC S. mutans (S. mutans): 16 μl/ml | MIC A. viscos (A. viscosus): 32 μl/ml

CCCCCCCC(=O)N[C@@H](CCCCN)C(=O)N[C@H](C(=O)N[C@@H](C)C(=O)NCC(=O)N[C@@H](CCCCN)C(=O)N[C@H](C(=O)N[C@@H](C)C(=O)N[C@@H](CCCCN)C(=O)N[C@H](C(=O)N[C@@H](C)C(=O)NCC(=O)N[C@@H](CCCCN)C(=O)N[C@H](C(=O)N[C@@H](C)C(=O)N[C@@H](CCCCN)C(=O)N[C@H](C(=O)N[C@@H](C)C(=O)NCC(=O)N[C@@H](CCCCN)C(=O)N[C@H](C(=O)N[C@@H](C)C(N)=O)[C@@H](C)CC)[C@@H](C)CC)[C@@H](C)CC)[C@@H](C)CC)[C@@H](C)CC)[C@@H](C)CC [Oct-(SEQ ID NO: 27)-NH2] (Octanoyl-KIAGKIAKIAGKIAKIAGKIA-NH2)
MIC P. gingivalis (strain) W50 (P. gingivalis): 16 μl/ml

CCCCCCCC(=O)N[C@@H](CCCCN)C(=O)N[C@H](C(=O)N[C@@H](C)C(=O)NCC(=O)N[C@@H](CCCCN)C(=O)N[C@H](C(=O)N[C@@H](C)C(=O)N[C@@H](CCCCN)C(=O)N[C@H](C(=O)N[C@@H](C)C(=O)NCC(=O)N[C@@H](CCCCN)C(=O)N[C@H](C(=O)N[C@@H](C)C(=O)N[C@@H](CCCCN)C(=O)N[C@H](C(=O)N[C@@H](C)C(=O)NCC(=O)N[C@@H](CCCCN)C(=O)N[C@H](C(=O)N[C@@H](C)C(=O)O)[C@@H](C)CC)[C@@H](C)CC)[C@@H](C)CC)[C@@H](C)CC)[C@@H](C)CC)[C@@H](C)CC [Oct-(SEQ ID NO: 27)-OH] (Octanoyl-KIAGKIAKIAGKIAKIAGKIA-OH)
MIC P. gingivalis (strain) W50 (P. gingivalis): 1 μl/ml

KVALKALKKVALKALKVALKAL-NH2 [(SEQ ID NO: 152)-NH2]
MIC P. gingivalis (strain) 9-14K-1 (P. gingivalis): 4 μl/ml | MIC P. gingivalis (strain) 381 (P. gingivalis): 32 μl/ml | MIC P. gingivalis (strain) A7A1-28 (P. gingivalis): 4,8 μl/ml | MIC P. gingivalis (strain) FAY-19M-1 (P. gingivalis): 8 μl/ml | MIC P. gingivalis (strain) W50 (P. gingivalis): 4 μl/ml | MIC S. mutans (S. mutans): 16 μl/ml | MIC A. viscos (A. viscosus): 16 μl/ml

CCCCCCCC(=O)N[C@@H](CCCCNC(=N)N)C(=O)N[C@H](C(=O)N[C@@H](C)C(=O)NCC(=O)N[C@@H](CCCCNC(=N)N)C(=O)N[C@H](C(=O)N[C@@H](C)C(=O)N[C@@H](CCCCNC(=N)N)C(=O)N[C@H](C(=O)N[C@@H](C)C(=O)NCC(=O)N[C@@H](CCCCNC(=N)N)C(=O)N[C@H](C(=O)N[C@@H](C)C(=O)N[C@@H](CCCCNC(=N)N)C(=O)N[C@H](C(=O)N[C@@H](C)C(=O)NCC(=O)N[C@@H](CCCCNC(=N)N)C(=O)N[C@H](C(=O)N[C@@H](C)C(N)=O)[C@@H](C)CC)[C@@H](C)CC)[C@@H](C)CC)[C@@H](C)CC)[C@@H](C)CC)[C@@H](C)CC [Oct-(SEQ ID NO: 66)-NH2] (Octanoyl-[hArg]IAG[hArg]IA[hArg]IAG[hArg]IA[hArg]IAG[hArg]IA-NH2)
MIC P. gingivalis (strain) W50 (P. gingivalis): 2 μl/ml
